The values that follow come from US20130236527A1, “LICORICE LOLLIPOP THAT INHIBITS DENTAL CARIES FORMATION” (INTELLIHERB, LLC, priority 2008, published 2013).

In one assay the test system is S. mutans. Kind of assay: anti-S. mutans bioactivity examination of extract batches. The class given is cell-based, Streptococcus mutans. An excerpt: In addition to chemical analysis, all batches, or statistically relevant samples of continuous production processes (e.g., 1/3600 candies; or 1/5000 candies; or 1/10,000 candies or the like) or statistically relevant samples of candy production batches (e.g., 1/10 batches; or 1/20 batches; or 1/50 batches), are examined for bioactivity. While the pure compound of glycyrrhizol A has anti-S. mutans activity at 1 microgram per ml, the mixed compound usually has anti-S. mutans activity at 10-30 microgram per ml.

In the next assay the test system is bacterial adherence. In words: inhibition of bacterial adherence / dental caries formation.

For `COc1c(CC=C(C)C)c(O)cc2c1-c1oc3cc(O)c(CC=C(C)C)cc3c1CO2` [Glycyrrhizol A], the “anti-S. mutans activity at (concentration)” value in the assay on S. mutans is 1 microgram per ml.

Turning to `CC1(C)[C@@H](O[C@H]2O[C@H](C(=O)O)[C@@H](O)[C@H](O)[C@H]2O[C@@H]2O[C@H](C(=O)O)[C@@H](O)[C@H](O)[C@H]2O)CC[C@]2(C)[C@H]3C(=O)C=C4[C@@H]5C[C@@](C)(C(=O)O)CC[C@]5(C)CC[C@@]4(C)[C@]3(C)CC[C@@H]12` [glycyrrhizin], in the assay with bacterial adherence, the “inhibition of dental caries formation by inhibiting bacterial adherence” value is listed as “can inhibit formation of dental caries by inhibiting bacterial adherence”.
